Data: ChEMBL document CHEMBL5154648, “Antitumor activity of novel POLA1-HDAC11 dual inhibitors” (Eur J Med Chem, 2022)
The source made the active and inactive calls. The rule behind the calls is not given here.

Tests used:
[1] = tested on: MDA-MB-231; assay: Antiproliferative activity against human MDA-MB-231 cells incubated for 24 hrs followed by incubating in drug-free medium for 48 hrs and measured by SRB assay; type: functional, cell-based
[2] = tested on: NCI-H460; assay: Antiproliferative activity against human NCI-H460 cells at 0.1 to 0.4 uM assessed as reduction in PIN1 level and measured by Western blot analysis; type: functional, cell-based; settings: dose 0.1-0.4 µM
[3] = biological target: T1, DNA polymerase alpha catalytic subunit (Homo sapiens) (UniProt P09884); assay: Inhibition of recombinant POLA1 (unknown origin) using 5-Fluorescein-rGrGrArArArGrGrArCrGrArArArCrA-3 as substrate at 10 to 50 uM and measured by primer extension assay; settings: dose 10-50 µM
T1 sequence (whole entry): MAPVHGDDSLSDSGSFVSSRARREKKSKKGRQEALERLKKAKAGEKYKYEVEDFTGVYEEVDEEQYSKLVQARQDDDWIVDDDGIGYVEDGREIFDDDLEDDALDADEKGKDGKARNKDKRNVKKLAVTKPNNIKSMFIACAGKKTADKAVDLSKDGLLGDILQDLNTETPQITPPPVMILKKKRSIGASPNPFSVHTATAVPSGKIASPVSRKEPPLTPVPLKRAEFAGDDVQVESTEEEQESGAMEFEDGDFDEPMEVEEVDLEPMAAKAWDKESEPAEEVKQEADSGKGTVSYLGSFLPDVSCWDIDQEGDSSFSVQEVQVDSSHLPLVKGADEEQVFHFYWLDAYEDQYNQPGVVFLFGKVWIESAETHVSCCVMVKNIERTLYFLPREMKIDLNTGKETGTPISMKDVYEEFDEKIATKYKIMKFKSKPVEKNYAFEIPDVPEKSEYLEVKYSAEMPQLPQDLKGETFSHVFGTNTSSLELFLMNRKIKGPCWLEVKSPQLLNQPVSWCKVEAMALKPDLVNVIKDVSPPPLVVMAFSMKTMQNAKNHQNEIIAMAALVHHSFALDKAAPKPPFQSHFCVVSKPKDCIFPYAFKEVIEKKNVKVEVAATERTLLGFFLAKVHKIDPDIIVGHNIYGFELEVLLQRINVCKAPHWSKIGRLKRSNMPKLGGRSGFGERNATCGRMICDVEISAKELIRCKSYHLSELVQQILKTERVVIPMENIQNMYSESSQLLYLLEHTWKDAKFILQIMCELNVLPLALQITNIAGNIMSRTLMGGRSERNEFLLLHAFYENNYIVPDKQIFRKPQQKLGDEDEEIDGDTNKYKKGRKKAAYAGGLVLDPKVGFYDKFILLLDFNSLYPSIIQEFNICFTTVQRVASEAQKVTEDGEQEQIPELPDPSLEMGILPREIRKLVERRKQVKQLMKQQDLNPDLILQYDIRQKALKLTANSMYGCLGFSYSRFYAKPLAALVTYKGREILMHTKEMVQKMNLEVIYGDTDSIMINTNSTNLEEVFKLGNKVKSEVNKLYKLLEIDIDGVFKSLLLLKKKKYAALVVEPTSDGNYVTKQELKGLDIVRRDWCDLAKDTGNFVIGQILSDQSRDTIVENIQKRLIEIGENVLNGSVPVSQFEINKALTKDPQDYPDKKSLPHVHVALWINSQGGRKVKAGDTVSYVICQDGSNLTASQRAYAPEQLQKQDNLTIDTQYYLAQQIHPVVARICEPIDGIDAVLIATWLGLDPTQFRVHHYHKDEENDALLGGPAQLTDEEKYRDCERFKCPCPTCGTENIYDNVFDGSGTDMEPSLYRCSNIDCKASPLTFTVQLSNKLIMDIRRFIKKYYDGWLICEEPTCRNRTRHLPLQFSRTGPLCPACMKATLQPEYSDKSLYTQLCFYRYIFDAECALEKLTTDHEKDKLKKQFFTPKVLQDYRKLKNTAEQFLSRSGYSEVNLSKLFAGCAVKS

[4] = biological target: T2, Histone deacetylase 11 (Homo sapiens) (UniProt Q96DB2); assay: Inhibition of HDAC11 in human NCI-H460 cells at 0.1 to 0.4 uM assessed as induction of p53 acetylation and measured by Western blot analysis; type: cell-based; settings: dose 0.1-0.4 µM
T2 sequence (whole entry): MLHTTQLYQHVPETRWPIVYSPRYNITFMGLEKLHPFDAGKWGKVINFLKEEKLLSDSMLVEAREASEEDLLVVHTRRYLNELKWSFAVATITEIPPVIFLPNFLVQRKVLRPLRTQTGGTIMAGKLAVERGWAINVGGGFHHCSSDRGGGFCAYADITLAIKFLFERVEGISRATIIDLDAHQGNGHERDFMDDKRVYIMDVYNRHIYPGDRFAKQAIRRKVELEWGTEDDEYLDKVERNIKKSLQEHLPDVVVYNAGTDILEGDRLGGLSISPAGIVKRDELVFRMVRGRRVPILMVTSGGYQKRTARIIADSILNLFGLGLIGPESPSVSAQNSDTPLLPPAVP

[5] = tested on: NCI-H460; assay: Induction of cell cycle arrest in human NCI-H460 cells assessed as accumulation of cells at G2/M phase at 0.26 uM after 72 hrs by flow cytometry (reference value: 21.1%); type: functional
[6] = tested on: NCI-H460; assay: Antiproliferative activity against human NCI-H460 cells at 0.1 to 0.4 uM assessed as reduction in p-ERK1/2 level and measured by Western blot analysis; type: functional, cell-based; settings: dose 0.1-0.4 µM
[7] = tested on: NCI-H460; assay: Induction of DNA damage in human NCI-H460 cells at 0.1 to 0.4 uM assessed as increase in p-H2AX levels and measured by Western blot analysis; type: functional, cell-based; settings: dose 0.1-0.4 µM
[8] = tested on: NCI-H460; assay: Induction of cell cycle arrest in human NCI-H460 cells assessed as accumulation of cells at sub-G1 phase at 0.26 uM after 72 hrs by flow cytometry (reference value: 1.1%); type: functional
[9] = tested on: MM473; assay: Induction of cell cycle arrest in human MM473-Luc cells assessed as accumulation of cells at G2/M phase at 1.2 uM after 72 hrs by flow cytometry (reference value: 11.7%); type: functional
[10] = Induction of cell cycle arrest in human H460-R9A cells assessed as accumulation of cells at S phase at 2.8 uM after 72 hrs by flow cytometry (reference value: 34.5%); type: functional
[11] = tested on: MM473; assay: Induction of cell cycle arrest in human MM473-Luc cells assessed as accumulation of cells at sub-G1 phase at 1.2 uM after 72 hrs by flow cytometry (reference value: 1.3%); type: functional
[12] = tested on: NCI-H460; assay: Down-regulation of POLA1 mRNA expression in human NCI-H460 cells at 0.25 uM measured by qRT-PCR assay; type: functional, cell-based
[13] = Antitumor activity against human H460-R9A cells xenografted in mouse assessed as tumor growth inhibition at 50 mg/kg, po qd administered 5 times a week for 3 to 4 weeks in combination with cisplatin at 4 mg/kg, iv administered every 7 days for 4 weeks; type: functional; settings: time 3-4 weeks, read-out: TGI
[14] = Toxicity in mouse xenografted with human H460-R9A cells assessed as body weight loss at 50 mg/kg, po qd administered 5 times a week for 3 to 4 weeks in combination with cisplatin at 4 mg/kg, iv administered every 7 days for 4 weeks; type: organism-based; settings: in vivo, time 3-4 weeks

Compound	IC50 [1] [nM]	Activity [2]	inhibition [3]	inhibition [4]	Activity [5] [%]	Activity [6]	Activity [7]	Activity [8] [%]	Activity [9] [%]	Activity [10] [%]	Activity [11] [%]	Activity [12]	inhibition in vivo at 50 mg/kg [13] [%]	Activity [14] [%]
O=C(O)C=Cc1ccc(-c2ccc(O)c(C34CC5CC(CC(C5)C3)C4)c2)cc1	1100	–	–	–	–	–	–	–	–	–	–	–	–	–
CC(Oc1ccc(-c2ccc(C=CC(=O)O)cc2)cc1C12CC3CC(CC(C3)C1)C2)C(=O)NO (stereo not given)	–	Active	Active	Active	7.8	Active	Active	13.2	–	–	–	–	–	–
O=C(O)C=Cc1ccc(-c2ccc(OCC(=O)NO)c(C34CC5CC(CC(C5)C3)C4)c2)cc1	1900	Active	Active	Active	–	Active	Active	–	14.1	37.4	39.7	Active	78	0
